# Test results as given in patent US20220380383A1, “NEUROPROTECTIVE PDI MODULATING SMALL MOLECULES AND METHODS OF USE THEREOF” (THE TRUSTEES OF COLUMBIA UNIVERSITY IN THE CITY OF NEW YORK, priority 2018, published 2022).
# Like-named read-outs stand apart in the source and are kept apart here.
# Assays:
# [1] = biological target: T1, human catalytic PDI A1 a domain (PDIa) (Homo sapiens, UniProt P07237); assay: Isothermal titration calorimetry (ITC) binding to PDIa
# T1 construct: made in house; host or cells: Escherichia coli BL21-Gold (DE3)
# T1 sequence (P07237 18-134): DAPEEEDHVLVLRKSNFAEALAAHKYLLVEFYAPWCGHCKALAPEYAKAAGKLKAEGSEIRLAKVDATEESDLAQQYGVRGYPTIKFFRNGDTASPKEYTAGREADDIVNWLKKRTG
# Experimental: All ITC experiments were carried out at 25° C. on MicoCal Auto-ITC200 system (GE Healthcare). […] ITC titration experiments were carried out at 25° C. with 19 injections, 2 μl per injection, and 180 seconds between each injection. The reference cell power was set to 5 μcal/sec. A control experiment was performed for each compound, where each compound was titrated into buffer to account for heat released due to dilution. This background was subtracted from test data before a final dissociation constant was obtained. […] Gibbs free energy, ΔG, was calculated from equation ΔG=ΔH-TΔS. All other parameters, Ka, n, ΔH, ΔS, were determined directly from the titration data.
# LOC14 analogs were designed and synthesized as described in the synthetic schemes. The analogs were evaluated for their binding to PDIa using isothermal titration calorimetry (ITC) (results of certain compounds are shown in FIGS. 1A-1E). Next, the analogs were tested for their ability to rescue PC12 cells from mHTT^Q103 induced cell death in a dose-dependent manner (results of certain compounds are shown in FIG. 2).
# PC12 mHTTQ103 cells = assay: Rescue of PC12 cells from mHTTQ103-induced cell death; format: cell-based, rat; details: for EC50: Rattus norvegicus, PC-12
# [2] = Solubility (stock solvent)
# [3] = rescue from mHTTQ103 induced cell death
# [4] = Tables 5-13, solvent not given (DMSO in Table 1)
# [5] = N/A = not active, read-out: ITC KD
# [6] = Tables 5-13, NA = not active, read-out: Kd
# [7] = Tables 5-13, PC12 cells, read-out: EC50
# [8] = rescue from mHTTQ103 induced cell death, read-out: PC12 cells EC50
Compound,ITC KD ([1]; N/A = not active),PC12 cells Max % Viability (PC12 mHTTQ103 cells; [3]) [%],Solubility [2] [mM in DMSO],PC12 cells EC50 (PC12 mHTTQ103 cells; [3]),"Max Viability (%) (PC12 mHTTQ103 cells; Tables 5-13, PC12 cells)","Solubility [2, 4] [mM]","Kd [1, 5] [nM]","Kd [1, 6] [nM]",EC50 (PC12 mHTTQ103 cells; [7]) [nM],EC50 (PC12 mHTTQ103 cells; [8]) [nM],"Kd ([1]; two-site binding, first site, read-out: ITC KD1) [nM]","Kd ([1]; two-site binding, second site, read-out: ITC KD2) [nM]"
"NC(=O)c1cccc(F)c1SSc1c(F)cccc1C(N)=O [LC-44, 2,2′-disulfanediylbis(3-fluorobenzamide)]",KD = N/A irreversible or not active,87.19,100,,,,,,,,,
NC(=O)c1cccc(C(F)(F)F)c1SSc1c(C(N)=O)cccc1C(F)(F)F [LC-45],KD = N/A irreversible or not active,16.98,100,Not Active,,,,,,,,
O=c1ssc2ccccc12 [LC-48],KD = N/A irreversible or not active,8.14,100,Not Active,8,100,,,,,,
S=c1ssc2ccccc12 [LC-49],KD = N/A irreversible or not active,8.75,100,Not Active,9,100,,,,,,
O=c1c2cccnc2sn1CCN1CCCCC1 [LC-54],,10.67,100,Not Active,11,100,< 20,≤ 20,,,,
O=c1c2cccnc2sn1CCN1CCOCC1 [LC-55],,13.20,100,Not Active,13,100,20.1,20,,,,
O=c1c2cccnc2sn1CCC1CCNCC1 [LC-56],KD = N/A irreversible or not active,14.03,100,Not Active,14,100,,,,,,
"Cc1nnc2s[nH]c(=O)c2c1C [LC-57, 4,5-dimethylisothiazolo[5,4-c]pyridazin-3(2H)-one]",,54.15,100,,54,100,17.5,18,12200,,,
"C[C@H](c1ccccc1)n1sc2ncccc2c1=O [LC-58, (R)-2-(1-phenylethyl)isothiazolo[5,4-b]pyridin-3(2H)-one]",,13.62,100,Not Active,14,100,0.3,0.3,,,,
"Cc1ccc2c(=O)[nH]sc2c1 [LC-60, 6-Methylbenzo[d]isothiazol-3(2H)-one]",,59.49,100,,60,100,347,347,562,562,,
"Cc1ccc2s[nH]c(=O)c2c1 [LC-61, 5-Methylbenzo[d]isothiazol-3(2H)-one]",,64.68,100,,65,100,267,267,591,591,,
"C#CCn1sc2ccccc2c1=O [LC-66, 2-(prop-2-yn-1-yl)benzo[d]isothiazol-3(2H)-one]",,40.34,100,,,,,,,763,30.7,14400
